US20080199550A1, “Novel Anticancer Agent, Methods for Obtaining the Same and Pharmaceutical Compositions Thereof” (priority 2005, published 2008)
In brackets after ≈: the same amount, converted by molar mass.

Legend:
[1] = tested on: HL-60 cells; assay: Genomic DNA extraction / DNA fragmentation; type: cell-based, human; details: 7 ug/ml, 48 h
Description: For assessing the extent of damage to the cellular DNA following the HAC-1 treatment, the cells under investigation were seeded in 25 cm^2 tissue culture flasks at a cell density of 1×10^6 cells per flask and incubated for different time points in a humidified atmosphere containing 5% CO2 at 37° C. The cells after incubation with samples at 7 μg/ml for 24, 48 and 72 hours were pelleted, The cell pelleted were washed with the PBS and incubated in a shaking hot water bath at 37 C. for 1-2 hours with lysis buffer for mammalian DNA extraction. The lysate was then treated with 1.5 volumes of Isopropyl alcohol and the DNA pelleted by centrifuging at […] for 20 minutes The DNA was dissolved in Tris EDTA (TE pH 8.00) and was run on 2% agarose and the visualized with the help of a gel documentation system (Pharmacia) and recorded.

[2] = tested on: MCF-7; assay: Cell viability (MTT) assay; type: cell-based, human
Description: The screening of samples was done in human breast cancer cells (MCF-7, MDA-MB-468, ZR-75-1 and SK-Br-3), human liver carcinoma cells (HepG2), human colon adinocacinoma cells (Colo320 D-M), human acute promylocytic leukemia cells (HL-60), mouse sarcoma cells (Sarcoma 180), mouse melanoma cells (C57/B1/6J). Cells were maintained in DMEM, RPMI 1640(colo320-D-M and HL-60) and Mecoy's medium (SKBr-3) supplemented with 10% Fetal Calf Serum (FCS) and antibiotics (100 IU/ml of penicillin and 100 μg/ml of streptomycin) till they achieved 80% confluence in a humidified atmosphere containing 5% CO2 at 37° C. The cultures were passaged upon confluence on a regular basis. […] Morphological changes in the cells were recorded
It was performed after removal of the culture supernatants; MTT assay was performed to assess the viability of cells. […] The plates were read on a micro plate reader using a reference wavelength of 690 nm and a test wavelength of 540 nm.
For calculation of IC50 value, the data were analyzed by no leaner regression (Curve Fit) analysis using Graph Pad Prism version 4.00. The results of cell proliferation and other parameters were analyzed by one-way ANOVA with Bonferroni's Multiple Comparison Test.

[3] = tested on: S-180 cells; assay: Sarcoma bearing mice; type: in vivo, mouse
Description: Adult, male age-matched Swiss albino mice (29-34 g) housed in groups of four to five in plastic cages, received laboratory rodent chow and tap water ad libitum 14 days prior to experimentation in a temperature controlled room with a 12-h dark/light cycle. S-180 cells maintained in the peritoneal cavity of male mice were used for testing the antitumour activity. The cell suspension was diluted to 1.18×10^8 cells/ml, and 0.1 ml of the suspension was inoculated intra-peritoneally into the mice. The tumour-bearing mice were treated, 24 hrs after inoculation, by i.p. injections of 10 and 20 mg/kg of HAC-01 (2 mg/ml with vehicle in physiological saline solution) at the dosage of 0.05 and 0.1 ml/10 gm b.wt. of mouse every other day for 14 days (Total 7 injections). The control group was treated with vehicle in 0.9% NaCl. The mice b.wt. was recorded at 0,4,8, 11,16,18,20,22 and 24th day.
All data were presented as mean ±SD. Statistical significance was evaluated by t test. P<0.05 is considered as statistically significant.
White blood cell (WBC) and differential leukocyte counts were measured from freely flowing tail vein blood of normal control, sarcoma control and HAC-01 treated groups.

[4] = tested on: MDA cells; assay: Cell proliferation assay (trypan blue exclusion); type: cell-based, human
Description: (§1) For assaying the inhibitory effects of the samples on cell proliferation, cancer cells were seeded into a 96-well tissue culture plate at a cell density of 5×10^4 cells per well and incubated with plant extract at different concentrations for 24 hours in a humidified atmosphere containing 5% CO2 at 37° C. The viable and dead cell counts were performed as per trypan blue exclusion method and results were recorded.

[5] = tested on: MCF-7; assay: Cell proliferation assay (trypan blue exclusion); type: cell-based, human
Description: as §1

[6] = tested on: Colo-320 DM; assay: Cell proliferation assay (trypan blue exclusion); type: cell-based, human
Description: as §1

[7] = tested on: MCF-7 cells; assay: Assay for influence of estrogen; type: cell-based, human; details: with or without estradiol, 24 h
Description: The efficacy of HAC-1 was studied to assess the hormone dependent or independent activity on cell proliferation. For this purpose MCF-7 cells were initially seeded in a 24 well plate with DMEM supplemented with 10% FCS and incubated for 24 hours in a humidified atmosphere with 5% CO2 and 95% air at 37° C. The cells were then shifted to charcoal striped medium supplemented with 1% bovine albumin serum (BSA,) with or with out the estradiol and HAC-1 and incubated further for a period of 24 h. After the incubation the cell population in each of the groups was recoded by trypan blue exclusion method.

[8] = molecular target: T1, telomerase (Homo sapiens, UniProt O14746); assay: Telo TAGGG Telomerase PCR ELISA; type: cell-based; details: MCF-7; 6.25 μg/ml; 48 and 72 hours
T1 construct: endogenous in cells; host or cells: MCF-7
Description: In the present study the telomerase activity of the cancer cell were assessed following the treatment with the samples with the help of Telomerase PCR ELISA (Roche, Germany). Cells were plated in a 24 well plate (2×10^5 cells per well) in DMEM supplemented with FBS (10%) and incubated for 48 hours and 72 hours in a humidified atmosphere with 95% air and 5% CO2 at 37° C. with (6.25 μg/ml) or with out (Control) the samples. Cells of the positive control group were treated with paclitaxel at 1.75 μg/ml and incubated as above. This experiment was done in human breast cancer cells (MCF-7). The cell pellets were washed with PBS and resuspended in lysis solution (200 μl) and the debris was pelleted and the supernatant was transferred to a fresh tube. The Telo TAGGG Telomerase PCR ELISA (Roche) was carried as per the manufacturer's protocol. The samples were added to a PCR amplification tube containing reaction mixture (Tris Buffer with telomerase substrate, nucleotides, Taq polymersase biotin labeled primer 1 and primer 2 specific to telomere fragment) and nuclease free water and allowed for elongation for 33 cycles in a Thermal Cycler (MJ Research, PTC 100). […] The reaction was stopped with the help of 1N H2SO4 and was read in an ELISA plate reader at a test wavelength of 450 nm and reference wavelength of 690 nm.

[9] = tested on: MCF-7; assay: DNA integrity assay (acredine orange, fluorescent microscope); type: cell-based, human; details: end of 48 h of incubation
Description: It was observed by direct visualization under fluorescent microscope. The cell pellets were treated with acredine orange (t 1:10 dilution) and directly visualized under fluorescent microscope under UV spectrum and the changes in the DNA were documented.

[10] = tested on: cancer cells; assay: Cell proliferation assay, all the cell lines; type: cell-based
Description: as §1

[11] = tested on: NMU induced breast tumours; assay: N-nitroso-N-methylurea induced model of breast cancer in rats; type: in vivo, rat; details: 25 mg/kg po daily 3 weeks then 12.5 mg/kg i.p. twice a week 5 weeks, comparable to tamoxifen
Description: A standard protocol for induction of breast cancer in female Sprague-Dawley rats (7 to 8 weeks of age and weight range of 80-100 gms) with a single dose of N-nitroso-N-methylurea (NMU) was used for the study. The rats were obtained from animal facility, R & D center, The Himalaya Drug Company, Bangalore. They were maintained on standard pellet diet (Lipton India Ltd., Mumbai) and water ad libitum. Around 60 rats were selected and NMU was administered intraperitoneally at a dose of 50 mg/kg b.wt. NMU was dissolved in saline and pH adjusted to 4.8. Animals were observed daily to assess general health. […]
Three longest possible diameters were recorded, and tumour volume (cm^3) was calculated using the formula LX W X B.
The variations of the total surface areas of tumors between day 1 and day 57 were analyzed using a two-way ANOVA for repeated measurements. […]

T1 sequence (O14746 whole entry): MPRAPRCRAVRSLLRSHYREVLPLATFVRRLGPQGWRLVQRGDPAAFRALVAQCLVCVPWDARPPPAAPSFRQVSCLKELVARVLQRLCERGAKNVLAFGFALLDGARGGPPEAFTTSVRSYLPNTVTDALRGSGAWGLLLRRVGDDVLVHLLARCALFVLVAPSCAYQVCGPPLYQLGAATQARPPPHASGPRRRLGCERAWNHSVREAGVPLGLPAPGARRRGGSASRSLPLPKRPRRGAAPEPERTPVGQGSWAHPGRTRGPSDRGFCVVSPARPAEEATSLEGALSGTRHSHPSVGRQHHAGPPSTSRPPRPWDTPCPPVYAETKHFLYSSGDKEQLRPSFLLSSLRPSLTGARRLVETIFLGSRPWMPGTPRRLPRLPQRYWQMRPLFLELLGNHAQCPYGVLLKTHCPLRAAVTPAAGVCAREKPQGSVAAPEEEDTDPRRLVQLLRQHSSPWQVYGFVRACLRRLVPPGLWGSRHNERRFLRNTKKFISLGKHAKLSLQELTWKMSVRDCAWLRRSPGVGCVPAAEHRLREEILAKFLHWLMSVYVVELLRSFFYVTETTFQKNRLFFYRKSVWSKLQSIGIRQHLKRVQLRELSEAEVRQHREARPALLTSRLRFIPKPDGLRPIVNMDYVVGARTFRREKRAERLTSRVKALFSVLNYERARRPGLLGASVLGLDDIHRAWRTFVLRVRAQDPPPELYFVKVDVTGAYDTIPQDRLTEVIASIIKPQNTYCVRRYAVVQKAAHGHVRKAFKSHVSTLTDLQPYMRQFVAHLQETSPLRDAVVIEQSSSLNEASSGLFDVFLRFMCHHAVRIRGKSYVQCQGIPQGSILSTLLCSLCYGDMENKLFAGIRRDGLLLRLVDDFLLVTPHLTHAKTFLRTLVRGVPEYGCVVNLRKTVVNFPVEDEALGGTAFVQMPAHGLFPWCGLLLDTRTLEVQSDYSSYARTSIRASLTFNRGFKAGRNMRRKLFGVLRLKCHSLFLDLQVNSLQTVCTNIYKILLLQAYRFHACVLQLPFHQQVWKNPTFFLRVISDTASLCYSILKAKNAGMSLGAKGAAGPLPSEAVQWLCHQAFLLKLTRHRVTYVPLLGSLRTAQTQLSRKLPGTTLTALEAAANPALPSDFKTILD

| IC50 [2] [µg/mL] | telomerase activity compared to control [8] | Compound | apoptosis (DNA pattern) [1] | differential count of WBC (neutrophils, lymphocytes) ([3]; sarcoma bearing mice, 20 mg/kg, i.p.) | weight gain ([3]; tumour bearing mice, i.p. 10 and 20 mg/kg every other day for 14 days) | effective concentration to induce 50% inhibition of proliferation [4] [µg/mL] | effective concentration to induce 50% inhibition of proliferation [5] [µg/mL] | effective concentration to induce 50% inhibition of proliferation [6] [µg/mL] | influence of estrogen on drug activity [7] | cells found apoptosed completely [9] | cell proliferation compared to control ([10]; all the cell lines, p<0.001 and p<0.01) | tumor volume [11] | growth inhibition ([10]; at 1.75 μg/ml) |
| --- | --- | --- | --- | --- | --- | --- | --- | --- | --- | --- | --- | --- | --- |
| 1.62 (≈ 6.47 µM) | inhibition in the telomarase activity | CC1=C2C3OC(=O)C(C)C3(O)CCC2(C)CCC1 (stereo not shown) [HAC-1, 7-hydroxyeudesm-4-en-6,12-olide] | induced apoptosis | restore these altered parameters to near normal | significantly reduced the weight gain | 2 | 4 | 2 | drug activity is independent of estrogen | more than 80% | significantly inhibited | significantly reduced the tumor volume |  |
|  |  | CC(=O)O[C@H]1C(=O)[C@@]2(C)[C@H]([C@H](OC(=O)c3ccccc3)[C@]3(O)C[C@H](OC(=O)[C@H](O)[C@@H](NC(=O)c4ccccc4)c4ccccc4)C(C)=C1C3(C)C)[C@]1(OC(C)=O)CO[C@@H]1C[C@@H]2O [paclitaxel, reference compound] |  |  |  |  |  |  |  |  |  |  | marked growth inhibition |
